According to PubChem BioAssay AID1259407 (Chemical Carcinogenesis Research Information System (CCRIS), 2018):
Active and inactive are the calls of the source. How the calls were made is not given here.

Tested on: CCRIS mutagenicity, Ames/micronucleus/aberration tests
Test: CCRIS mutagenicity studies
[1] = Test System: AMES SALMONELLA TYPHIMURIUM, Strain/Indicator: TA98, Metabolic Activation: NONE, Method: STANDARD PLATE
[2] = Test System: AMES SALMONELLA TYPHIMURIUM, Strain/Indicator: TA100, Metabolic Activation: NONE, Method: STANDARD PLATE

## CCCCCCCC/C=C\CCCCCCCC(=O)O
Test System: AMES SALMONELLA TYPHIMURIUM, Strain/Indicator: TA97, Metabolic Activation: HAMSTER, LIVER, S-9, AROCLOR 1254 (10 OR 30%), Method: PREINCUBATION
  mutagenic call: inactive; negative
Test System: AMES SALMONELLA TYPHIMURIUM, Strain/Indicator: TA97, Metabolic Activation: NONE, Method: PREINCUBATION
  mutagenic call: inactive; negative
Test System: AMES SALMONELLA TYPHIMURIUM, Strain/Indicator: TA97, Metabolic Activation: RAT, LIVER, S-9, AROCLOR 1254 (10 OR 30%), Method: PREINCUBATION
  mutagenic call: inactive; negative
Test System: AMES SALMONELLA TYPHIMURIUM, Strain/Indicator: TA98, Metabolic Activation: HAMSTER, LIVER, S-9, AROCLOR 1254 (10 OR 30%), Method: PREINCUBATION
  mutagenic call: inactive; negative
Test System: AMES SALMONELLA TYPHIMURIUM, Strain/Indicator: TA98, Metabolic Activation: NONE, Method: PREINCUBATION
  mutagenic call: inactive; negative
[1]
  mutagenic call: inactive; negative
Test System: AMES SALMONELLA TYPHIMURIUM, Strain/Indicator: TA98, Metabolic Activation: RAT, LIVER, S-9, AROCLOR 1254 (10 OR 30%), Method: PREINCUBATION
  mutagenic call: inactive; negative
Test System: AMES SALMONELLA TYPHIMURIUM, Strain/Indicator: TA98, Metabolic Activation: RAT, LIVER, S-9, KC 500, Method: PREINCUBATION
  mutagenic call: inactive; negative
Test System: AMES SALMONELLA TYPHIMURIUM, Strain/Indicator: TA98, Metabolic Activation: S-9, PHENOBARBITAL, Method: STANDARD PLATE
  mutagenic call: inactive; negative
Test System: AMES SALMONELLA TYPHIMURIUM, Strain/Indicator: TA100, Metabolic Activation: HAMSTER, LIVER, S-9, AROCLOR 1254 (10 OR 30%), Method: PREINCUBATION
  mutagenic call: inactive; negative
Test System: AMES SALMONELLA TYPHIMURIUM, Strain/Indicator: TA100, Metabolic Activation: NONE, Method: PREINCUBATION
  mutagenic call: inactive; negative
[2]
  mutagenic call: inactive; negative
Test System: AMES SALMONELLA TYPHIMURIUM, Strain/Indicator: TA100, Metabolic Activation: RAT, LIVER, S-9, AROCLOR 1254 (10 OR 30%), Method: PREINCUBATION
  mutagenic call: inactive; negative
Test System: AMES SALMONELLA TYPHIMURIUM, Strain/Indicator: TA100, Metabolic Activation: RAT, LIVER, S-9, KC 500, Method: PREINCUBATION
  mutagenic call: inactive; negative
Test System: AMES SALMONELLA TYPHIMURIUM, Strain/Indicator: TA100, Metabolic Activation: S-9, PHENOBARBITAL, Method: STANDARD PLATE
  mutagenic call: inactive; negative
Test System: AMES SALMONELLA TYPHIMURIUM, Strain/Indicator: TA1535, Metabolic Activation: HAMSTER, LIVER, S-9, AROCLOR 1254 (10 OR 30%), Method: PREINCUBATION
  mutagenic call: inactive; negative
Test System: AMES SALMONELLA TYPHIMURIUM, Strain/Indicator: TA1535, Metabolic Activation: NONE, Method: PREINCUBATION
  mutagenic call: inactive; negative
Test System: AMES SALMONELLA TYPHIMURIUM, Strain/Indicator: TA1535, Metabolic Activation: NONE, Method: STANDARD PLATE
  mutagenic call: inactive; negative
Test System: AMES SALMONELLA TYPHIMURIUM, Strain/Indicator: TA1535, Metabolic Activation: RAT, LIVER, S-9, AROCLOR 1254 (10 OR 30%), Method: PREINCUBATION
  mutagenic call: inactive; negative
Test System: AMES SALMONELLA TYPHIMURIUM, Strain/Indicator: TA1535, Metabolic Activation: RAT, LIVER, S-9, KC 500, Method: PREINCUBATION
  mutagenic call: inactive; negative
Test System: AMES SALMONELLA TYPHIMURIUM, Strain/Indicator: TA1535, Metabolic Activation: S-9, PHENOBARBITAL, Method: STANDARD PLATE
  mutagenic call: inactive; negative
Test System: AMES SALMONELLA TYPHIMURIUM, Strain/Indicator: TA1537, Metabolic Activation: NONE, Method: PREINCUBATION
  mutagenic call: inactive; negative
Test System: AMES SALMONELLA TYPHIMURIUM, Strain/Indicator: TA1537, Metabolic Activation: NONE, Method: STANDARD PLATE
  mutagenic call: inactive; negative
Test System: AMES SALMONELLA TYPHIMURIUM, Strain/Indicator: TA1537, Metabolic Activation: RAT, LIVER, S-9, KC 500, Method: PREINCUBATION
  mutagenic call: inactive; negative
Test System: AMES SALMONELLA TYPHIMURIUM, Strain/Indicator: TA1537, Metabolic Activation: S-9, PHENOBARBITAL, Method: STANDARD PLATE
  mutagenic call: inactive; negative
Test System: AMES SALMONELLA TYPHIMURIUM, Strain/Indicator: TA1538, Metabolic Activation: NONE, Method: PREINCUBATION
  mutagenic call: inactive; negative
Test System: AMES SALMONELLA TYPHIMURIUM, Strain/Indicator: TA1538, Metabolic Activation: RAT, LIVER, S-9, KC 500, Method: PREINCUBATION
  mutagenic call: inactive; negative
Test System: E. COLI, Strain/Indicator: WP2 UVRA, Metabolic Activation: NONE, Method: PREINCUBATION
  mutagenic call: inactive; negative
Test System: E. COLI, Strain/Indicator: WP2 UVRA, Metabolic Activation: NONE, Method: STANDARD PLATE
  mutagenic call: inactive; negative
Test System: E. COLI, Strain/Indicator: WP2 UVRA, Metabolic Activation: RAT, LIVER, S-9, KC 500, Method: PREINCUBATION
  mutagenic call: inactive; negative
Test System: E. COLI, Strain/Indicator: WP2 UVRA, Metabolic Activation: S-9, PHENOBARBITAL, Method: STANDARD PLATE
  mutagenic call: inactive; negative

## Cc1c(N(C)CS(=O)(=O)O)c(=O)n(-c2ccccc2)n1C
Test System: AMES SALMONELLA TYPHIMURIUM, Strain/Indicator: TA97A, Metabolic Activation: NONE, Method: STANDARD PLATE
  mutagenic call: inactive; negative
Test System: AMES SALMONELLA TYPHIMURIUM, Strain/Indicator: TA97A, Metabolic Activation: RAT LIVER S-9, PHENOBARBITAL, Method: STANDARD PLATE
  mutagenic call: active; positive
Test System: AMES SALMONELLA TYPHIMURIUM, Strain/Indicator: TA98, Metabolic Activation: GUINEA PIG, LIVER, S-9, PCB, Method: PREINCUBATION
  mutagenic call: inactive; negative
Test System: AMES SALMONELLA TYPHIMURIUM, Strain/Indicator: TA98, Metabolic Activation: HAMSTER, LIVER, S-9, PCB, Method: PREINCUBATION
  mutagenic call: inactive; negative
Test System: AMES SALMONELLA TYPHIMURIUM, Strain/Indicator: TA98, Metabolic Activation: MOUSE, LIVER, S-9, PCB, Method: PREINCUBATION
  mutagenic call: inactive; negative
[1]
  mutagenic call: inactive; negative
Test System: AMES SALMONELLA TYPHIMURIUM, Strain/Indicator: TA98, Metabolic Activation: RAT LIVER S-9, PHENOBARBITAL, Method: STANDARD PLATE
  mutagenic call: active; positive
Test System: AMES SALMONELLA TYPHIMURIUM, Strain/Indicator: TA98, Metabolic Activation: RAT, LIVER, S-9, PCB, Method: PREINCUBATION
  mutagenic call: inactive; negative
Test System: AMES SALMONELLA TYPHIMURIUM, Strain/Indicator: TA100, Metabolic Activation: GUINEA PIG, LIVER, S-9, PCB, Method: PREINCUBATION
  mutagenic call: inactive; negative
Test System: AMES SALMONELLA TYPHIMURIUM, Strain/Indicator: TA100, Metabolic Activation: HAMSTER, LIVER, S-9, PCB, Method: PREINCUBATION
  mutagenic call: inactive; negative
Test System: AMES SALMONELLA TYPHIMURIUM, Strain/Indicator: TA100, Metabolic Activation: MOUSE, LIVER, S-9, PCB, Method: PREINCUBATION
  mutagenic call: inactive; negative
[2]
  mutagenic call: inactive; negative
Test System: AMES SALMONELLA TYPHIMURIUM, Strain/Indicator: TA100, Metabolic Activation: RAT LIVER S-9, PHENOBARBITAL, Method: STANDARD PLATE
  mutagenic call: inactive; negative
Test System: AMES SALMONELLA TYPHIMURIUM, Strain/Indicator: TA100, Metabolic Activation: RAT, LIVER, S-9, AROCLOR 1254, Method: PREINCUBATION
  mutagenic call: active; positive
Test System: AMES SALMONELLA TYPHIMURIUM, Strain/Indicator: TA100, Metabolic Activation: RAT, LIVER, S-9, PCB, Method: PREINCUBATION
  mutagenic call: active; positive
Test System: AMES SALMONELLA TYPHIMURIUM, Strain/Indicator: TA102, Metabolic Activation: NONE, Method: STANDARD PLATE
  mutagenic call: inactive; negative
Test System: AMES SALMONELLA TYPHIMURIUM, Strain/Indicator: TA102, Metabolic Activation: RAT LIVER S-9, PHENOBARBITAL, Method: STANDARD PLATE
  mutagenic call: inactive; negative
